In US9096605B2, “Pyrazolopyrimidine derivatives as PI3 kinase inhibitors” (GlaxoSmithKline LLC, priority 2011, dated 2015):

Key:
[1] = biological target: T1, PI3K-beta (Homo sapiens, UniProt P42338); assay: HTRF in vitro profiling assay for PI3K inhibition (beta isoform); format: biochemical; conditions: PI3K-beta enzyme pIC50 range, 200 pM enzyme, 100 uM ATP, 10 uM PIP2, 150 mM NaCl, corrected pIC50, read-out: PI3K-b Enz Activity
T1 construct: made in house
Excerpt: HTRF In Vitro Profiling Assays for PI3K Inhibition
The PI3-Kinase profiling assays were developed to measure the compound-dependent inhibition of the alpha, beta, delta, and gamma isoforms of PI3K in an in vitro catalytic assay. This assay was developed and optimized from a kit produced by Upstate (Millipore catalog #33-017). Briefly, this procedure utilizes a pre-formed HTRF (Homogeneous Time-Resolved Fluorescence energy transfer) complex between four binding partners: 1) biotinylated PIP3, 2) GST tagged pleckstrin homology (PH) domain, 3) Europium labeled anti-GST monoclonal antibody, and 4) Streptavidin-Allophycocyanin (APC). The native PIP3 produced by PI 3-Kinase activity displaces biotin-PIP3 from the PH domain, resulting in the dissociation of the HTRF complex and a decrease in the fluorescence signal. The format of this assay is the same for all 4 isoforms of PI3K; the differences lie in the concentration of enzyme used to achieve the most robust signal. The alpha and delta assays are run at 400 pM enzyme; the beta assay is at 200 pM enzyme and the gamma assay is run at 1 nM enzyme. In addition, the alpha, beta and delta assays are run with 150 mM NaCl while the gamma assay is run in the absence of NaCl. The ATP concentration is 100 uM in the alpha, beta, and delta assays and 15 uM ATP in the gamma assay. All reactions are run at 10 uM PIP2
Compounds are serially diluted (3-fold in 100% DMSO) across a 384-well polypropylene mother plate from column 1 to column 12 and column 13 to column 24, to yield 11 concentrations for each test compound. Columns 6 and 18 contain only DMSO. Once titrations are made, […] is transferred to a 384-well low-volume assay plate (Greiner 784076). This assay plate contains three pharmacological controls (known PI3K inhibitors) and 3 assay controls: (1) Enzyme without inhibitor; (2) Buffer minus enzyme, and (3) Buffer minus enzyme plus native PIP3. DMSO is stamped into all wells of columns 6 and 18. PIP3 is added at 40 μM in 1× Reaction buffer (1 μL of 200 μM PIP3) to alternating rows of column 18 (wells 18 B, D, F, H, J, L, N, P). The no-enzyme control reactions are run in wells 18 A, C, E, G, I, K, M, O (0.1 μL of 100% DMSO).
The PI3-Kinase profiling assay was optimized using the HTRF kit provided by Upstate (Millipore). The assay kit contains seven reagents: 1) 4× Reaction Buffer; 2) native PIP2 (substrate); 3) Stop A (EDTA); 4) Stop B (Biotin-PIP3); 5) Detection Mix A (Streptavidin-APC); 6) Detection Mix B (Eu-labeled Anti-GST plus GST-tagged PH-domain); 7) Detection Mix C (KF). In addition, the following items were obtained or purchased: PI3Kinase (prepared by GSK BR&AD), dithiothreitol (Sigma, D-5545), Adenosine-5′-triphosphate (ATP, Teknova cat. # A0220), native PIP3 (1,2-dioctanoyl-sn-glycero-3-[phosphoinositil-3,4,5-triphosphate]tetraammonium salt (Avanti polar lipids, 850186P), DMSO (Sigma, 472301).
PI3Kinase Reaction Buffer is prepared by diluting the stock 1:4 with de-ionized water. Freshly prepared DTT is added at a final concentration of 5 mM on the day of use. Enzyme addition and compound pre-incubation are initiated by the addition of 2.5 μL of PI3K (at twice its final concentration) in 1× reaction buffer to all wells using a Multidrop Combi. Plates are incubated at room temperature for 15 minutes. Reactions are initiated by addition of 2.5 μL of 2× substrate solution (PIP2 and ATP in 1× reaction buffer) using a Multidrop Combi. Plates are incubated at room temperature for one hour. Reactions are quenched by the addition of 2.5 μL of stop solution (Stop A and Stop B pre-mixed at a ratio of 5:1, respectively) to all wells using the Multidrop Combi. […]

[2] = tested on: pAKT(Ser473) in MDA-MB-468 cells; assay: pAKT(Ser473) assay in MDA-MB-468 cells; format: cell-based; conditions: Homo sapiens, 0.5 h, compound treatment 30 minutes, MSD ELISA phospho AKT(Ser473), given as ranges, read-out: Cell Activity—pAKT IC50 in MDA-MB-468
Experimental: pAKT(Ser473) Assay in MDA-MB-468 Cells
MDA-MB-468 cells were plated in 384-well flat clear bottom tissue culture plates (Corning #3701) at a density of 5000 cells per 0.057 cm2 in 48 ul of RPMI 1640 media supplemented with 10% fetal bovine serum (FBS). Cells were seeded with a Wellmate liquid handler (Matrix). Columns 1 through 23 were plated with cells and column 24 contained media alone. Cells were incubated at 37° C. with 5% CO2 for approximately 16-20 hours. Duplicate compound plates were prepared in 384-well polypropylene V-Bottom plates (Greiner #781280).
Compound titrations were made across the columns (A1-A20). 20 ul of compound was added to the first column and diluted into a 20 point curve with dimethylsulfoxide (DMSO, Thermo #TS2064) using a 2-fold dilution factor with a liquid handling robot (Hamilton). Columns 22 through 24 contained DMSO alone. Titrations were diluted 682-fold for compound treatment with 4 ul of compound added to 105 ul of RPMI media. Two ul of the diluted compound was added to the cell plates containing 48 ul of media using a multimek robot (Beckman Coulter). Final DMSO concentrations were 0.15%. Cells were treated with compound for 30 minutes at 37° C. with 5% CO2.
Following incubation, media was aspirated from dosed cell plates using an ELx405 plate washer (Bio-Tek) and 25 ul of 4° C. Meso Scale Discovery (MSD) lysis buffer with the addition of protease and phosphatase inhibitors (supplied in MSD kit #N31CB-1) was added to each well using a multidrop combi (Thermo). Precoated 4-spot per well MSD ELISA plates coated with total and phospho AKT(Ser473) antibody and BSA (supplied in kit) were blocked for 1 hour at room temperature with 35 ul per well of 1× MSD wash buffer+3% BSA (supplied in kit).
Blocked plates were washed 4 times with 100 ul per well of 1× Tris wash buffer (supplied in MSD kit) using an Elx405 plate washer (Bio-Tek). To each well, 20 ul of cell lysate was added using a multimek robot (Beckman Coulter) and the plate incubated at 4° C. overnight (˜12-24 hours). Following incubation, the ELISA plates were washed 4 times (100 ul/well) with 1× Tris wash buffer. Twenty microliters per well of 1× detection antibody (supplied in MSD kit) was added using a multidrop combi (Thermo), followed by a 2 hour incubation at room temperature. Detection antibody was aspirated and the plates washed 4 times (100 ul/well) with 1× Tris wash buffer. Read Buffer (supplied in MSD kit) was added at 1× (35 ul/well) at room temperature using a multidrop (Thermo). Relative luminescence units (RLU) were determined using a SECTOR™ Imager 6000 with MSD Workbench Software.
Concentration Response Curves for pAKT(Ser473):
For analysis of the pAKT(Ser473) concentration response curves, the data was normalized using Phospho AKT values divided by the sum of corresponding Total AKT and Phospho AKT values. The normalized values are plotted as the percent of the DMSO-treated control values on the corresponding plate. To determine IC50 values, the data is fit to a 4 parameter nonlinear sigmoidal dose response (variable slope) using GraphPad Prism version 4 for Windows, (GraphPad Software, San Diego Calif. USA). Criteria for curve fitting and IC50 determination include that the IC50 values from duplicate runs must be within 2 to 3-fold of each other, the Y min must be less than or equal to 30% of the DMSO-treated control and the Y max must range between 80-120%. Any data point equal to or greater than 40% of the curve was not utilized.

T1 sequence (P42338 whole entry, canonical isoform): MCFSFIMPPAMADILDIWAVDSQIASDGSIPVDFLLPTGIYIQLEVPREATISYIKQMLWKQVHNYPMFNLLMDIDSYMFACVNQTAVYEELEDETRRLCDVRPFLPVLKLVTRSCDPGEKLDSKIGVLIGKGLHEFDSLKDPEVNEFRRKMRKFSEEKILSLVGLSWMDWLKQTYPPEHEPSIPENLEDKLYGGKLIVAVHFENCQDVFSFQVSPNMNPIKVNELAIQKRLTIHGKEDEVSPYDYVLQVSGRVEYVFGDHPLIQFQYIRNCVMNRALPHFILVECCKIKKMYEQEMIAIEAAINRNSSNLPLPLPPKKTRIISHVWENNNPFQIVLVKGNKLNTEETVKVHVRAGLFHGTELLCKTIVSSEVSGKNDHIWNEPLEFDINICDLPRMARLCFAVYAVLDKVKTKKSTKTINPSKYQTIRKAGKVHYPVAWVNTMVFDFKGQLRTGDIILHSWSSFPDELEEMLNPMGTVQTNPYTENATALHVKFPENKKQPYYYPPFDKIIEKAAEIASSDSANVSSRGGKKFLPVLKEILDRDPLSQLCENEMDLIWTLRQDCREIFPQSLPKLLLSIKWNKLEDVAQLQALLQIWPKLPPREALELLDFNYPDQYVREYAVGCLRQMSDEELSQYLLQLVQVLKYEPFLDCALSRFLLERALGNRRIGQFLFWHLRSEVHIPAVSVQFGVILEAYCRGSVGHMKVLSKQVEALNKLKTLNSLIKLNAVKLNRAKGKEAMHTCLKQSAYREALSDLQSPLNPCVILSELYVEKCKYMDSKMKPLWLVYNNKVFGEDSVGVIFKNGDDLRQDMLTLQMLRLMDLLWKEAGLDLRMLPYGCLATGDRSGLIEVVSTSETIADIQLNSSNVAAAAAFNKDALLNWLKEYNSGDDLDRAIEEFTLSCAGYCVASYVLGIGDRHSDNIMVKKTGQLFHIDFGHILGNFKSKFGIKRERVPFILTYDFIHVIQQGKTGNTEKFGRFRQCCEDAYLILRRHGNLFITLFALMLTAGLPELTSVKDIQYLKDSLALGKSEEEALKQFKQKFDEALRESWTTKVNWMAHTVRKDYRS
T1 sequence (P27986 whole entry partner, canonical isoform): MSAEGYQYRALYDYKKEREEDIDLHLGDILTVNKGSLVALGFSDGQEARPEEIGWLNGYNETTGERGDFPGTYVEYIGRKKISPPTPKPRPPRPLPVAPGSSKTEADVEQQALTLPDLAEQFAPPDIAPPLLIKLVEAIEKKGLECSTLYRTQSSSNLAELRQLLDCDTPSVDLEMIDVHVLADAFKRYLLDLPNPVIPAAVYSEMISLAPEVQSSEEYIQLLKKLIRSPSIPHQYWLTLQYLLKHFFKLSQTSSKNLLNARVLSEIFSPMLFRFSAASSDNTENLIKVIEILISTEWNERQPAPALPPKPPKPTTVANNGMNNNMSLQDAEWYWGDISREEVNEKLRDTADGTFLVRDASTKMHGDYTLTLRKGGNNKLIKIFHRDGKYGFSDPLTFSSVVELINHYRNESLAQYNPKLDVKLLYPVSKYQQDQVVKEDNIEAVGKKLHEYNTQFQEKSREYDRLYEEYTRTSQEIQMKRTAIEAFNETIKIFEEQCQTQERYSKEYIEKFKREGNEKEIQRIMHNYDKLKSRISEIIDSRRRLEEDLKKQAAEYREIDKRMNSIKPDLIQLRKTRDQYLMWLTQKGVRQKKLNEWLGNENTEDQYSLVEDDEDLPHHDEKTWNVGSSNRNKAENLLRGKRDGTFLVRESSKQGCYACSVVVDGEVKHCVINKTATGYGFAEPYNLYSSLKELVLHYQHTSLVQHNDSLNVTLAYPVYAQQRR

SMILES	IC50 [1]	IC50 [2]
Cc1c(Cc2cccc(Cl)c2Cl)c2nc(-c3ccncc3)cc(=O)n2n1C [Example 33, 3-(2,3-dichlorobenzyl)-1,2-dimethyl-5-(pyridin-4-yl)pyrazolo[1,5-a]pyrimidin-7(1H)-one]	0.126 to 1.26 µM	> 20 µM
Cc1nn2c(C(N)=O)cc(N3CCOCC3)nc2c1Cc1cccc2ccccc12 [Example 38, 2-methyl-5-morpholino-3-(naphthalen-1-ylmethyl)pyrazolo[1,5-a]pyrimidine-7-carboxamide]	0.0126 to 0.1 µM	< 1 µM
Cc1nn2c(C(N)=O)cc(N3CCOCC3)nc2c1Cc1cccc(C(F)(F)F)c1C [Example 39, 2-methyl-3-(2-methyl-3-(trifluoromethyl)benzyl)-5-morpholinopyrazolo[1,5-a]pyrimidine-7-carboxamide]	0.0126 to 0.1 µM	> 20 µM
Cc1nn2c(C#N)cc(N3CCOCC3)nc2c1Cc1cccc(C(F)(F)F)c1C [Example 45, 2-methyl-3-(2-methyl-3-(trifluoromethyl)benzyl)-5-morpholinopyrazolo[1,5-a]pyrimidine-7-carbonitrile]	0.126 to 1.26 µM	> 20 µM
Cc1nn2c(-c3nn[nH]n3)cc(N3CCOCC3)nc2c1Cc1cccc(C(F)(F)F)c1C [Example 46, 4-(2-methyl-3-(2-methyl-3-(trifluoromethyl)benzyl)-7-(2H-tetrazol-5-yl)pyrazolo[1,5-a]pyrimidin-5-yl)morpholine]	0.0126 to 0.1 µM	1 to 5 µM
Cc1nn2c(-c3nn[nH]n3)cc(N3CCOCC3)nc2c1Cc1cccc2ccccc12 [Example 47, 4-(2-methyl-3-(naphthalen-1-ylmethyl)-7-(1H-tetrazol-5-yl)pyrazolo[1,5-a]pyrimidin-5-yl)morpholine]	0.0126 to 0.1 µM	1 to 5 µM
Cc1c(Cc2cnn3c(-c4cn[nH]c4)cc(N4CCOCC4)nc23)cccc1C(F)(F)F [Example 48, 4-(3-(2-methyl-3-(trifluoromethyl)benzyl)-7-(1H-pyrazol-4-yl)pyrazolo[1,5-a]pyrimidin-5-yl)morpholine]	0.126 to 1.26 µM	> 20 µM
Cn1c(=O)c(Cc2cccc(Cl)c2Cl)c2nc(-c3ccncc3)cc(O)n21 [Example 50, 3-(2,3-dichlorobenzyl)-7-hydroxy-1-methyl-5-(pyridin-4-yl)pyrazolo[1,5-a]pyrimidin-2(1H)-one]	0.0126 to 0.1 µM	6 to 10 µM

Continued, values first:

IC50 [1]	IC50 [2]	SMILES
0.00126 to 0.01 µM	11 to 20 µM	COc1nn2c(O)cc(-c3ccncc3)nc2c1Cc1cccc(Cl)c1Cl [Example 35, 3-(2,3-dichlorobenzyl)-2-methoxy-5-(pyridin-4-yl)pyrazolo[1,5-a]pyrimidin-7-ol]
0.00126 to 0.01 µM	1 to 5 µM	Cc1nn2c(C(=O)O)cc(N3CCOCC3)nc2c1Cc1cccc(C(F)(F)F)c1C [Example 36, 2-methyl-3-(2-methyl-3-(trifluoromethyl)benzyl)-5-morpholinopyrazolo[1,5-a]pyrimidine-7-carboxylic acid]
0.0126 to 0.1 µM	1 to 5 µM	Cc1nn2c(C(=O)O)cc(N3CCOCC3)nc2c1Cc1cccc2ccccc12 [Example 37, 2-methyl-5-morpholino-3-(naphthalen-1-ylmethyl)pyrazolo[1,5-a]pyrimidine-7-carboxylic acid]
0.00126 to 0.01 µM	< 1 µM	Cc1nn2c(-c3nc[nH]n3)cc(N3CCOCC3)nc2c1Cc1cccc2ccccc12 [Example 40, 4-(2-methyl-3-(naphthalen-1-ylmethyl)-7-(1H-1,2,4-triazol-3-yl)pyrazolo[1,5-a]pyrimidin-5-yl)morpholine]
0.00126 to 0.01 µM	6 to 10 µM	Cc1nn2c(-c3nc[nH]n3)cc(N3CCOCC3)nc2c1Cc1cccc(C(F)(F)F)c1C [Example 41, 4-(2-methyl-3-(2-methyl-3-(trifluoromethyl)benzyl)-7-(1H-1,2,4-triazol-3-yl)pyrazolo[1,5-a]pyrimidin-5-yl)morpholine]
0.00126 to 0.01 µM	< 1 µM	Cc1nn2c(-c3cc[nH]n3)cc(N3CCOCC3)nc2c1Cc1cccc2ccccc12 [Example 42, 4-(2-methyl-3-(naphthalen-1-ylmethyl)-7-(1H-pyrazol-3-yl)pyrazolo[1,5-a]pyrimidin-5-yl)morpholine]
0.00126 to 0.01 µM	< 1 µM	Cc1nn2c(-c3ncc[nH]3)cc(N3CCOCC3)nc2c1Cc1cccc2ccccc12 [Example 43, 4-(7-(1H-imidazol-2-yl)-2-methyl-3-(naphthalen-1-ylmethyl)pyrazolo[1,5-a]pyrimidin-5-yl)morpholine]
